# Measured values published in US6479435B1, “Diaryl ethers and processes for their preparation and herbicidal and desiccant compositions containing them” (ISK Americas Incorporated, priority 1997, dated 2002).
# Key:
# Assay type in all cases: in vivo
# [1] = system: green foxtail (Setaria viridis, SETVI); test: Post-emerge greenhouse herbicide test, phytotoxicity rating; conditions: 14 days after application; for phytotoxicity rating SETVI: scale 0-100
# Outline: (§1)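 Compounds in acetone with 0.25% v/v non-ionic surfactant were track-sprayed at 187 l/ha over plants at the 2-3 leaf stage, at 63 to 1000 g ai/ha. Pots were bottom-watered. Injury was scored visually 14 days later on a 0-100 scale, where 0 is no damage and 100 is complete plant death.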
# [2] = system: velvetleaf (Abutilon theophrasti, ABUTH); test: as above; conditions: 14 days after application; for phytotoxicity rating ABUTH: scale 0-100
# Outline: as §1
# [3] = system: large crabgrass (Digitaria sanguinalis, DIGSA); test: as above; conditions: 14 days after application; for phytotoxicity rating DIGSA: scale 0-100
# Outline: as §1
# [4] = system: ivyleaf morningglory (Ipomoea hederacea, IPOHE); test: as above; conditions: 14 days after application; for phytotoxicity rating IPOHE: scale 0-100
# Outline: as §1
# [5] = system: Johnsongrass (Sorghum halepense, SORHA); test: as above; conditions: 14 days after application; for phytotoxicity rating SORHA: scale 0-100
# Outline: as §1
# [6] = system: barnyardgrass (Echinochloa crusgalli, ECHCG); test: as above; conditions: 14 days after application; for phytotoxicity rating ECHCG: scale 0-100
# Outline: as §1
# [7] = system: lambsquarters (Chenopodium album, CHEAL); test: as above; conditions: 14 days after application; for phytotoxicity rating CHEAL: scale 0-100
# Outline: as §1
# [8] = system: redroot pigweed (Amaranthus retroflexus, AMARE); test: as above; conditions: 14 days after application; for phytotoxicity rating AMARE: scale 0-100
# Outline: as §1
# [9] = system: sicklepod (Cassia obtusifolia, CASOB); test: as above; conditions: 14 days after application; for phytotoxicity rating CASOB: scale 0-100
# Outline: as §1
# [10] = system: common ragweed (Ambrosia artemisiifolia L., AMBEL); test: as above; conditions: 14 days after application; for phytotoxicity rating AMBEL: scale 0-100
# Outline: as §1
# [11] = system: field corn (Zea mays L., var. Dekalb 535, CORN); test: Pre-emerge greenhouse test, crop damage rating; conditions: 14 days after application, rating scale 0-100
# Outline: (§2)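 Seeds sown in sandy loam mix one day before track-sprayer application of compounds in acetone at 125–1000 g ai/ha (187 l/ha), then surface-watered to incorporate and bottom-watered. Visual rating 14 days after application on a 0–100 scale (0 = no damage, 100 = all plants dead).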
# [12] = system: upland rice (Oryza sp., var.Tebonnet, RICE); test: Pre-emerge greenhouse test, crop damage rating; conditions: 14 days after application, rating scale 0-100
# Outline: as §2
# [13] = system: soybean (Glycine max L., var. Pella 86, SOY); test: Pre-emerge greenhouse test, crop damage rating; design: key to SOY crop damage rating: 0 = no damage, 100 = complete death of all plants; conditions: 14 days after application, rating scale 0-100
# Outline: as §2
# [14] = system: green foxtail (Setaria viridis, SETVI); test: Pre-emerge greenhouse herbicide test, phytotoxicity rating; conditions: 14 days after application, rating scale 0-100
# Outline: as §2
# [15] = system: velvetleaf (Abutilon theophrasti, ABUTH); test: as above; conditions: 14 days after application, rating scale 0-100
# Outline: as §2
# [16] = system: common ragweed (Ambrosia artemisiifolia L., AMBEL); test: as above; conditions: 14 days after application, rating scale 0-100
# Outline: as §2
# [17] = system: large crabgrass (Digitaria sanguinalis, DIGSA); test: as above; conditions: 14 days after application, rating scale 0-100
# Outline: as §2
# [18] = system: ivyleaf morningglory (Ipomoea hederacea, IPOHE); test: as above; conditions: 14 days after application, rating scale 0-100
# Outline: as §2
# [19] = system: Johnsongrass (Sorghum halepense, SORHA); test: as above; conditions: 14 days after application, rating scale 0-100
# Outline: as §2
# [20] = system: barnyardgrass (Echinochloa crusgalli, ECHCG); test: as above; conditions: 14 days after application, rating scale 0-100
# Outline: as §2
# [21] = system: lambsquarters (Chenopodium album, CHEAL); test: as above; conditions: 14 days after application, rating scale 0-100
# Outline: as §2
# [22] = system: redroot pigweed (Amaranthus retroflexus, AMARE); test: as above; conditions: 14 days after application, rating scale 0-100
# Outline: as §2
# [23] = system: sicklepod (Cassia obtusifolia, CASOB); test: as above; conditions: 14 days after application, rating scale 0-100
# Outline: as §2
# [24] = system: field corn (Zea mays L., var. Dekalb 535, CORN); test: Post-emerge greenhouse test, crop damage rating; conditions: 14 days after application; for crop damage rating CORN: scale 0-100
# Outline: as §1
# [25] = system: upland rice (Oryza sp., var.Tebonnet, RICE); test: Post-emerge greenhouse test, crop damage rating; conditions: 14 days after application; for crop damage rating RICE: scale 0-100
# Outline: as §1
# [26] = system: soybean (Glycine max L., var. Pella 86, SOY); test: Post-emerge greenhouse test, crop damage rating; design: key to crop damage rating SOY: 0-100 scale: 0 = no damage, 100 = complete death of all plants; conditions: 14 days after application; for crop damage rating SOY: scale 0-100
# Outline: as §1
smiles,measurement,setting,value
O=c1n(-c2cc(Oc3nc(Cl)ccc3C(F)(F)F)c(Cl)cc2F)c(=S)n2n1CCCC2 [Compound 8-27],phytotoxicity rating SETVI,[1]; rate 63 g ai/ha,50
same,phytotoxicity rating SETVI,[1]; rate 500 g ai/ha,50
same,phytotoxicity rating ABUTH,[2]; rate 63 g ai/ha,80
same,phytotoxicity rating ABUTH,[2]; rate 500 g ai/ha,100
same,phytotoxicity rating DIGSA,[3]; rate 63 g ai/ha,10
same,phytotoxicity rating DIGSA,[3]; rate 500 g ai/ha,20
same,phytotoxicity rating IPOHE,[4]; rate 63 g ai/ha,50
same,phytotoxicity rating IPOHE,[4]; rate 500 g ai/ha,80
same,phytotoxicity rating SORHA,[5]; rate 63 g ai/ha,30
same,phytotoxicity rating SORHA,[5]; rate 500 g ai/ha,20
same,phytotoxicity rating ECHCG,[6]; rate 63 g ai/ha,0
same,phytotoxicity rating ECHCG,[6]; rate 500 g ai/ha,10
same,phytotoxicity rating CHEAL,[7]; rate 63 g ai/ha,90
same,phytotoxicity rating CHEAL,[7]; rate 500 g ai/ha,100
same,phytotoxicity rating AMARE,[8]; rate 63 g ai/ha,90
same,phytotoxicity rating AMARE,[8]; rate 500 g ai/ha,100
same,phytotoxicity rating CASOB,[9]; rate 63 g ai/ha,30
same,phytotoxicity rating CASOB,[9]; rate 500 g ai/ha,100
same,phytotoxicity rating AMBEL,[10]; rate 63 g ai/ha,60
same,phytotoxicity rating AMBEL,[10]; rate 500 g ai/ha,85
same,CORN crop damage rating,[11]; Rate 125 g al/ha,0
same,CORN crop damage rating,[11]; Rate 500 g al/ha,0
same,RICE crop damage rating,[12]; Rate 125 g al/ha,0
same,RICE crop damage rating,[12]; Rate 500 g al/ha,10
same,SOY crop damage rating,[13]; Rate 125 g al/ha,0
same,SOY crop damage rating,[13]; Rate 500 g al/ha,0
same,SETVI phytotoxicity rating,[14]; Rate 125 g al/ha,60
same,SETVI phytotoxicity rating,[14]; Rate 500 g al/ha,100
same,ABUTH phytotoxicity rating,[15]; Rate 125 g al/ha,50
same,ABUTH phytotoxicity rating,[15]; Rate 500 g al/ha,100
same,AMBEL phytotoxicity rating,[16]; Rate 125 g al/ha,0
same,AMBEL phytotoxicity rating,[16]; Rate 500 g al/ha,0
same,DIGSA phytotoxicity rating,[17]; Rate 125 g al/ha,10
same,DIGSA phytotoxicity rating,[17]; Rate 500 g al/ha,50
same,IPOHE phytotoxicity rating,[18]; Rate 125 g al/ha,0
same,IPOHE phytotoxicity rating,[18]; Rate 500 g al/ha,30
same,SORHA phytotoxicity rating,[19]; Rate 125 g al/ha,0
same,SORHA phytotoxicity rating,[19]; Rate 500 g al/ha,30
same,ECHCG phytotoxicity rating,[20]; Rate 125 g al/ha,0
same,ECHCG phytotoxicity rating,[20]; Rate 500 g al/ha,0
same,CHEAL phytotoxicity rating,[21]; Rate 125 g al/ha,80
same,CHEAL phytotoxicity rating,[21]; Rate 500 g al/ha,100
same,AMARE phytotoxicity rating,[22]; Rate 125 g al/ha,100
same,AMARE phytotoxicity rating,[22]; Rate 500 g al/ha,100
same,CASOB phytotoxicity rating,[23]; Rate 125 g al/ha,0
same,CASOB phytotoxicity rating,[23]; Rate 500 g al/ha,80
same,crop damage rating CORN,[24]; rate 63 g ai/ha,5
same,crop damage rating CORN,[24]; rate 500 g ai/ha,10
same,crop damage rating RICE,[25]; rate 63 g ai/ha,0
same,crop damage rating RICE,[25]; rate 500 g ai/ha,5
same,crop damage rating SOY,[26]; rate 63 g ai/ha,70
same,crop damage rating SOY,[26]; rate 500 g ai/ha,80
Cc1nsc(Oc2cc(-n3nnn(CCCF)c3=O)c(F)cc2Cl)c1[N+](=O)[O-] [Compound 6-17],SETVI phytotoxicity rating (0-100),[1]; 63 g al/ha,0
same,SETVI phytotoxicity rating (0-100),[1]; 500 g al/ha,0
same,ABUTH phytotoxicity rating (0-100),[2]; 63 g al/ha,0
same,ABUTH phytotoxicity rating (0-100),[2]; 500 g al/ha,0
same,DIGSA phytotoxicity rating (0-100),[3]; 63 g al/ha,0
same,DIGSA phytotoxicity rating (0-100),[3]; 500 g al/ha,0
same,IPOHE phytotoxicity rating (0-100),[4]; 63 g al/ha,0
same,IPOHE phytotoxicity rating (0-100),[4]; 500 g al/ha,0
same,SORHA phytotoxicity rating (0-100),[5]; 63 g al/ha,0
same,SORHA phytotoxicity rating (0-100),[5]; 500 g al/ha,0
same,ECHCG phytotoxicity rating (0-100),[6]; 63 g al/ha,0
same,ECHCG phytotoxicity rating (0-100),[6]; 500 g al/ha,0
same,CHEAL phytotoxicity rating (0-100),[7]; 63 g al/ha,0
same,CHEAL phytotoxicity rating (0-100),[7]; 500 g al/ha,0
same,AMARE phytotoxicity rating (0-100),[8]; 63 g al/ha,0
same,AMARE phytotoxicity rating (0-100),[8]; 500 g al/ha,0
same,CASOB phytotoxicity rating (0-100),[9]; 63 g al/ha,0
same,CASOB phytotoxicity rating (0-100),[9]; 500 g al/ha,0
same,AMBEL phytotoxicity rating (0-100),[10]; 63 g al/ha,0
same,AMBEL phytotoxicity rating (0-100),[10]; 500 g al/ha,0
same,crop damage rating CORN,[11]; 125 g ai/ha,0
same,crop damage rating CORN,[11]; 500 g ai/ha,0
same,crop damage rating RICE,[12]; 125 g ai/ha,6
same,crop damage rating RICE,[12]; 500 g ai/ha,0
same,crop damage rating SOY,[13]; 125 g ai/ha,0
same,crop damage rating SOY,[13]; 500 g ai/ha,0
same,phytotoxicity rating SETVI,[14]; 125 g ai/ha,0
same,phytotoxicity rating SETVI,[14]; 500 g ai/ha,0
same,phytotoxicity rating ABUTH,[15]; 125 g ai/ha,0
same,phytotoxicity rating ABUTH,[15]; 500 g ai/ha,0
same,phytotoxicity rating AMBEL,[16]; 125 g ai/ha,0
same,phytotoxicity rating AMBEL,[16]; 500 g ai/ha,0
same,phytotoxicity rating DIGSA,[17]; 125 g ai/ha,0
same,phytotoxicity rating DIGSA,[17]; 500 g ai/ha,0
same,phytotoxicity rating IPOHE,[18]; 125 g ai/ha,0
same,phytotoxicity rating IPOHE,[18]; 500 g ai/ha,0
same,phytotoxicity rating SORHA,[19]; 125 g ai/ha,0
same,phytotoxicity rating SORHA,[19]; 500 g ai/ha,0
same,phytotoxicity rating ECHCG,[20]; 125 g ai/ha,0
same,phytotoxicity rating ECHCG,[20]; 500 g ai/ha,0
same,phytotoxicity rating CHEAL,[21]; 125 g ai/ha,0
same,phytotoxicity rating CHEAL,[21]; 500 g ai/ha,0
same,phytotoxicity rating AMARE,[22]; 125 g ai/ha,0
same,phytotoxicity rating AMARE,[22]; 500 g ai/ha,0
same,phytotoxicity rating CASOB,[23]; 125 g ai/ha,0
same,phytotoxicity rating CASOB,[23]; 500 g ai/ha,0
same,CORN crop damage rating (0-100),[24]; 63 g al/ha,0
same,CORN crop damage rating (0-100),[24]; 500 g al/ha,0
same,RICE crop damage rating (0-100),[25]; 63 g al/ha,0
same,RICE crop damage rating (0-100),[25]; 500 g al/ha,0
same,SOY crop damage rating (0-100),[26]; 63 g al/ha,0
same,SOY crop damage rating (0-100),[26]; 500 g al/ha,0
